Entries after “also recorded” stand apart in the source; their conditions may differ.
Key:
Assay type in all cases: cell-based
[1] = test system: RORα; experiment: Phosphorylation of RORα in HCT116 cells (immunoprecipitation / immunoblot with anti-phospho-Ser or anti-phospho-RORαS35 antibody)
Description: (A) Schematic representation of RORα showing the location of the N-terminal domain (NTD), the DNA-binding domain (DBD), the hinge region, the ligand-binding domain (LBD), and the AF-2 domain. […] HEK293 cells were cotransfected with plasmids expressing each His-tagged RORα deletion construct and β-catenin. Whole cell extracts (left panel) and Ni^+-NTA-agarose pulldown materials (right panel) were analyzed by immunoblotting against anti-β-catenin IgG or anti-Xpress IgG. (C) Illustration of the structure of deletion fragments of RORα(SEQ ID NO:17). (D) Interaction of each RORα deletion construct with HisMax-β-catenin was assessed by Ni^+-NTA-agarose pulldown assay. […] The phosphorylated peptide samples were analyzed by LC-MS analysis. […] Immunoprecipitation assay was conducted with anti-Flag antibody, and the phosphorylated RORα was detected by immunoblot analysis with anti-phospho-Ser antibody. […] The reaction samples were subjected to 12% SDSPAGE, and phosphorylated RORα was detected by autoradiography. […] The fluorescence-conjugated secondary antibody was visualized using fluorescence microscopy, and nuclear staining with DAPI was shown.
(A) The specificity of the antibody raised against phosphorylated RORαS35 peptide (SEQ ID NO:18) was assessed by dot blot analysis. (B) Treatment of TPA increased phophorylated RORα on S35 site as assessed by immunoprecipitation with anti-phospho-RORαS35 antibody. […]

[2] = test system: binding of RORα to β-catenin; experiment: Coimmunoprecipitation of RORα with β-catenin in HCT116 cells
Description: (§1) (A) The specificity of the antibody raised against phosphorylated RORαS35 peptide (SEQ ID NO:18) was assessed by dot blot analysis. (B) Treatment of TPA increased phophorylated RORα on S35 site as assessed by immunoprecipitation with anti-phospho-RORαS35 antibody. […] (D) Treatment of Go6976, a PKCα inhibitor, abolished TPA-dependent phosphorylation of RORα as assessed by immonoblotting with anti-phospho-RORαS35 antibody. (E) HCT116 cells were transfected with Flag-RORα WT, S35D, or S35A, and the cell extracts were immunoprecipitated with anti-Flag antibody followed by immunoblotting against anti-β-catenin antibody. (F) Coimmunoprecipitation assay of β-catenin with either RORαWT or S35A in HCT116 cells after treatment with TPA in the absence or presence of Go6976. (G) ChIP analysis on the cyclin D1 promoter after transfection with Flag-RORαWT, S35A, or S35D in HCT116 cells. (H) ChIP analysis on the cyclin D1 promoter in HCT116 cells after TPA treatment for indicated time. (I) ChIP assay was performed on the cyclin D1 promoter in the absence or presence of siRNA against PKCα with treatment of TPA for 90 min. (J) Real-time quantitative RT-PCR analysis of the cyclin D1 transcript in HCT116 cells in the presence of TPA for indicated time. (K) Knockdown effect of siRNA against RORα or PKCα was assessed in the expression of the cyclin D1 transcript in HCT116 cells.

[3] = test system: cyclin D1 promoter; experiment: ChIP assay on the cyclin D1 promoter in HCT116 cells
Description: as §1
(B) Cyclin D1 transcript was measured after introducing siRNAs against RORα or PKCα in the presence of Wnt5a in HCT116 cells. (C) Real-time quantitative RTPCR analysis of the cyclin D1 transcript in HCT116 cells after introducing RORα, S35A, or S35D in the presence of Wnt5a. (D) […] on the cyclin D1 promoter with treatment of either TPA or Wnt5a in HCT116 cells. Occupancy of the cyclin D1 promoter by phosphorylated RORα, β-catenin, RNA polymerase II, H3K9me2, H3K4me2, CBP, pCAF, p300, or SMRT was indicated. (E) Transwell cell migration assay for RORα, RORαS35A, or RORαS35D-expressing HCT116 cells with treatment of Wnt5a. Values are represented as mean±s.d. for three independent experiments. (F) The anchorage-independent growth of HCT116 cells expressing RORα, RORαS35A, or RORαS35D in soft agar. Values are expressed as mean±SEM for two experiments in 6 place wells. Colonies were counted in 10 different fields and total colony number/well was calculated. Representative image is shown for each group.
The ChIP, two-step ChIP, and shRNA-coupled ChIP assays were conducted as previously described (Baek et al., 2002; Kim et al., 2005).

[4] = test system: cyclin D1 transcript; experiment: Real-time quantitative RT-PCR of the cyclin D1 transcript in HCT116 cells
Description: The abundance of mRNA was detected by an ABI prism 7300 system with SYBR Green (molecular probes). Primer pairs were designed to amplify 90-150 bp mRNA specific fragments, and confirmed to be unique products by melting curve analysis. The PCR conditions were 95° C. (5 min) and 40 cycles of 95° C. (30 s), 57° C. (30 s), and 72° C. (30 s).
The quantity of mRNA was calculated using the ΔΔCt method and normalized by using primers to detect β-actin or HPRT. All reactions were performed in triplicates.

Compound	TPA-induced phosphorylation of RORα ([1]; in presence of TPA, anti-phospho-RORαS35 immunoblot)	TPA-induced increased binding of RORα to β-catenin ([2]; TPA plus Go6976)	phosphorylation of RORα ([1]; HCT116 cells, treatment alone)	binding of RORα to β-catenin ([2]; TPA treatment)	RNA polymerase II recruitment on the cyclin D1 promoter [3]	methylation of histone H3K9 on the cyclin D1 promoter [3]	recruitment of CBP, p300, and pCAF coactivators to the cyclin D1 promoter [3]	recruitment of β-catenin on the cyclin D1 promoter [3]	recruitment of phosphorylated RORα on the cyclin D1 promoter ([3]; anti-phospho-RORαS35 IgG)	cyclin D1 transcript [4]
Cn1c2ccccc2c2c3c(c4c5ccccc5n(CCC#N)c4c21)CNC3=O [Go6976]	abolished	almost completely abolished								
CCCCCCCCCCCCCC(=O)O[C@@H]1[C@@H](C)[C@@]2(O)[C@@H](C=C(CO)C[C@]3(O)C(=O)C(C)=C[C@@H]23)[C@@H]2C(C)(C)[C@]12OC(C)=O [TPA, 12-O-tetradecanoylphorbol-13acetate]			increased phosphorylation	significantly increased	concomitant decrease; also recorded: decreased	increased methylation	significantly decreased	not altered	increased the recruitment	downregulation

Source: US8697366B2, “Anti-cancer drug screening method using RORα” (Seoul National University Industry Foundation, priority 2009, dated 2014)
